Assay results published in patent US4985560A, “Pyridazino(4,5-b)indolizines” (American Home Products Corporation, priority 1990, dated 1991).
Where “and” joins values, the source holds several entries; their conditions need not be identical. Identical values can stand only once.

How the values were obtained:
[1] = test system: Alzheimer's patients and healthy elderly patients; settings: cited from earlier work; for clinical efficacy: due to side-effects, short duration of action, narrow active dose range
[2] = test system: male Sprague-Dawley (Charles River) rats; test: Radial arm maze test, scopolamine impairment; format: in vivo, rat; settings: for scopolamine impairment in delay, current and total errors / time compared to scopolamine / delay, current and total errors versus vehicle / time measures versus vehicle: first experiment (Table 2); for scopolamine impairment in delay, current and total errors / time compared to scopolamine: versus scopolamine
Text: The compound of Example 1 was also studied in the radial arm maze test where male Sprague-Dawley (Charles River) rats on a 23-hour food deprivation schedule were trained in an eight arm radial maze with all arms baited. Each session consisted of two maze exposures, with a time limit of 500 seconds for each exposure. After four correct choices (first exposure), each animal was removed from the maze for one hour then returned with only the remaining four arms baited (second exposure). Choice errors, consisting of delay errors (re-entry into any of the four arms chosen during the first exposure) and current errors (re-entry into any of the four arms chosen during the second exposure), as well as total errors were recorded. Durations for each exposure were also recorded. Statistical analysis were preformed using a One-Way Anova with Dunnetts T-Test comparisons.
All compounds were solubilized in distilled water.

[3] = test system: scopolamine-induced hyperactivity (muscarinic M1-mediated effect); test: Reduction of scopolamine-induced hyperactivity (locomotor activity chambers); format: in vivo, rat
Procedure: The motor activity chambers utilize infrared detectors to assess movement in 3 axes. Total activity measures (vertical+horizontal activity) were collected in 15 minute intervals for 1 hour post-injection. Total activity measures were cumulated across all time intervals for statistical analysis.

[4] = test system: memory loss; settings: cited from earlier work
[5] = target: T1, M2 receptor (Rattus norvegicus, UniProt P10980); test: biochemical; format: binding; settings: read-out: [3H]QNB M2 IC50
T1 sequence (P10980 1-466): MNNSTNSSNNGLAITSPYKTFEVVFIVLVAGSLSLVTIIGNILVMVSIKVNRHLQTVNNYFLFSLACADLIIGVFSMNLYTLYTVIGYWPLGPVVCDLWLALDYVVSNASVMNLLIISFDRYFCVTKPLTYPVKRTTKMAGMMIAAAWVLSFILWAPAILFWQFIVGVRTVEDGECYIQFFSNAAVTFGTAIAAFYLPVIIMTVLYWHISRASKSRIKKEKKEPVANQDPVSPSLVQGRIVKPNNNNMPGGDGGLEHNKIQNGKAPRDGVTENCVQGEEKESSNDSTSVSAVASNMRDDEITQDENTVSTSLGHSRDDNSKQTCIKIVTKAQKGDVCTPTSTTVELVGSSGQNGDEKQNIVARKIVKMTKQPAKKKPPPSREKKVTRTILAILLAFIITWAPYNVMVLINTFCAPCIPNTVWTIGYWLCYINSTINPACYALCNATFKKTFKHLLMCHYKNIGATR

[6] = target: T2, M1 muscarinic receptor (Rattus norvegicus, UniProt P08482); test: [3H]-Pirenzepine M1 receptor binding, rat brain tissue; settings: for IC50: [3H]pirenzepine, rat brain tissue; for M2/M1: ratio of M2 IC50 to M1 IC50
T2 construct: from tissue; host or cells: rat brain tissue
T2 sequence (P08482 1-460): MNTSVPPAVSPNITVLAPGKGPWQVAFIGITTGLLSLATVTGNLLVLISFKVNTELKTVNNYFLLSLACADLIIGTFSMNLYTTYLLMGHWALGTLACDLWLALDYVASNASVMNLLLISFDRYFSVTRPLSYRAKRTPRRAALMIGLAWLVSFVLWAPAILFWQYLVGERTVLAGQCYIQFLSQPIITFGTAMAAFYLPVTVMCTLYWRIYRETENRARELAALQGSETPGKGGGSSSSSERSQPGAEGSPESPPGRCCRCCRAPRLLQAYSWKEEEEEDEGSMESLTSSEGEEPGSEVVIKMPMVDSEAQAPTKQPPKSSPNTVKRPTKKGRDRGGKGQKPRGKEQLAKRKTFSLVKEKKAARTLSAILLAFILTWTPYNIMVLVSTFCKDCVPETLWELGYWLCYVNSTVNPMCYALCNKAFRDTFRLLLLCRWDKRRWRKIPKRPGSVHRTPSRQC

[7] = Table 2, arecoline 10.0 mg/kg i.p., scopolamine-impaired
[8] = Table 3, 1.0 mg/kg i.p. + scopolamine HBr 0.3 mg/kg s.c.
[9] = Table 3, 3.0 mg/kg i.p. + scopolamine HBr 0.3 mg/kg s.c.
[10] = Table 3, 10.0 mg/kg i.p. + scopolamine HBr 0.3 mg/kg s.c.
[11] = Table 2, physostigmine 0.01 mg/kg i.p., scopolamine-impaired
[12] = Table 2, scopolamine HBr 0.3 mg/kg s.c. alone
[13] = Table 3, scopolamine HBr 0.3 mg/kg s.c. alone

Compound: COC(=O)C1=CCCN(C)C1 [Arecoline, arecoline]
- clinical efficacy [1]: neither physostigmine nor arecoline have clinical efficacy
- Mean Errors, Current [2, 7]: 0.75
- Mean Errors, Delay [2, 7]: 1.50
- Mean Errors, Total [2, 7]: 2.25
- Mean Time, Current [2, 7]: 2.32 min
- Mean Time, Delay [2, 7]: 1.50 min
- Mean Time, Total [2, 7]: 4.06 min
- scopolamine impairment in delay, current and total errors [2]: significant reduction in scopolamine impairment in delay, current and total errors
- time compared to scopolamine [2]: no significant time reduction versus scopolamine
- delay, current and total errors versus vehicle [2]: did not
- time measures versus vehicle [2]: significant time increase versus vehicle
- dose active in scopolamine-induced hyperactivity test ([3]; route not stated): about 5.4 mg/kg
- reversal of muscarinic antagonist-induced memory deficit, rats ([4]; rats): can be reversed

Compound: CCN(CC)CCCNc1nnc(C)c2c1cc1ccccn12 [Example 1, 1-[(3'-Diethylaminopropyl)amino]-4-methylpyridazino[4,5-b]indolizine]
- total time compared to scopolamine ([2]; 1.0 mg/kg i.p., Table 3): reduction in time impairment compared to scopolamine
- delay time (first exposure) versus vehicle ([2]; 3.0 mg/kg i.p., Table 3): significantly increased
- current and total errors, dose trend ([2]; 1, 3, 10 mg/kg i.p., Table 3): definite dose-related decrease in scopolamine impairment
- delay errors, dose trend ([2]; 1, 3, 10 mg/kg i.p., Table 3): no dose-related trend
- total time versus vehicle ([2]; 3.0 and 10 mg/kg i.p., Table 3): significantly increased
- Mean Errors, Current [2, 8]: 2.00
- Mean Errors, Delay [2, 8]: 1.83
- Mean Errors, Total [2, 8]: 3.67
- Mean Time, Current [2, 8]: 1.83 min
- Mean Time, Delay [2, 8]: 1.03 min
- Mean Time, Total [2, 8]: 2.99 min
- Mean Errors, Current [2, 9]: 1.13
- Mean Errors, Delay [2, 9]: 2.38
- Mean Errors, Total [2, 9]: 3.50
- Mean Time, Current [2, 9]: 2.92 min
- Mean Time, Delay [2, 9]: 1.95 min
- Mean Time, Total [2, 9]: 4.96 min
- Mean Errors, Current [2, 10]: 0.75
- Mean Errors, Delay [2, 10]: 2.00
- Mean Errors, Total [2, 10]: 2.75
- Mean Time, Current [2, 10]: 3.32 min
- Mean Time, Delay [2, 10]: 1.63 min
- Mean Time, Total [2, 10]: 5.15 min
- impairment caused by scopolamine ([2]; all doses tested (1, 3, 10 mg/kg i.p.), Table 3): reduced the impairment caused by scopolamine
- current time (second exposure) versus vehicle ([2]; all groups, Table 3): significantly increased
- cognitive impairment due to cholinergic hypofunction ([2]; overall conclusion): can reduce cognitive impairment
- total activity versus vehicle-only controls ([3]; 30 and 54 mg/kg i.p., scopolamine 1.7 mg/kg s.c.): did not differ from vehicle-only controls
- dose active in reducing scopolamine-induced hyperactivity ([3]; i.p., scopolamine 1.7 mg/kg s.c., rats): 30 mg/kg and 54 mg/kg
- IC50 [5]: 4100 nM
- IC50 [6]: 98 nM
- M2/M1 [6]: 42

Compound: Cc1nnc(NCCN(C)C)c2cc3ccccn3c12 [Example 2]
- IC50 [5]: 12000 nM
- IC50 [6]: 660 nM
- M2/M1 [6]: 18

Compound: Cc1nnc(NCCCN(C)C)c2cc3ccccn3c12 [Example 3, N,N-Dimethyl-N'-(4-methylpyridazino[4,5-b]indolizin-1-yl)-1,3-propanediamine]
- IC50 [5]: 9500 nM
- IC50 [6]: 600 nM
- M2/M1 [6]: 24

Compound: Cc1nnc(NCCN2CCOCC2)c2cc3ccccn3c12 [Example 4, N-[2-(4-Morpholinyl)ethyl]-4-methylpyridazino[4,5-b]indolizin-1-amine]
- IC50 [5]: 19000 nM
- IC50 [6]: 2450 nM
- M2/M1 [6]: 8

Compound: Cc1nnc(NCCCN2CCOCC2)c2cc3ccccn3c12 [Example 5, N-[3-(4-Morpholinyl)propyl]-4-methylpyridazino[4,5-b]indolizin-1-amine]
- IC50 [5]: 12000 nM
- IC50 [6]: 270 nM
- M2/M1 [6]: 44

Compound: CCN1CCCC1CNc1nnc(C)c2c1cc1ccccn12 (stereo not drawn) [Example 6, N-[(1-Ethyl-2-pyrrolidinyl)methyl]-4-methylpyridazino[4,5-b]-indolizin-1-amine]
- IC50 [5]: 6200 nM
- IC50 [6]: 260 nM
- M2/M1 [6]: 24

Compound: Cc1nnc(N2CCN(C)CC2)c2cc3ccccn3c12 [Example 7, 4-Methyl-1-(4'-methylpiperazinyl)pyridazino[4,5-b]indolizine]
- IC50 [5]: 29000 nM
- IC50 [6]: 1000 nM
- M2/M1 [6]: 29

Compound: Cc1nnc(NCCCN2CCCCC2)c2cc3ccccn3c12 [Example 8, 4-Methyl-N-[3-(1-piperidinyl)propyl]pyridazino[4,5-b]indolizin-1-amine]
- IC50 [5]: 1400 nM
- IC50 [6]: 110 nM
- M2/M1 [6]: 13

Compound: Cc1nnc(NCCCN2CCN(C)CC2)c2cc3ccccn3c12 [Example 9, 4-Methyl-N-[4'-methyl(1-piperazinyl)propyl]pyridazino[4,5-b]indolizin-1-amine]
- IC50 [5]: 2800 nM
- IC50 [6]: 150 nM
- M2/M1 [6]: 19

Compound: Cc1nnc(NCCCCN2CCN(C)CC2)c2cc3ccccn3c12 [Example 10, 4-Methyl-N-[4'-methyl(1-piperazinyl)butyl]pyridazino[4,5-b]indolizin-1-amine]
- IC50 [5]: 3500 nM
- IC50 [6]: 140 nM
- M2/M1 [6]: 25

Compound: CNC(=O)Oc1ccc2c(c1)[C@]1(C)CCN(C)[C@@H]1N2C [Physostigmine, physostigmine]
- clinical efficacy [1]: neither physostigmine nor arecoline have clinical efficacy
- Mean Errors, Current [2, 11]: 0.88
- Mean Errors, Delay [2, 11]: 1.13
- Mean Errors, Total [2, 11]: 2.00
- Mean Time, Current [2, 11]: 2.01 min
- Mean Time, Delay [2, 11]: 1.14 min
- Mean Time, Total [2, 11]: 3.25 min
- scopolamine impairment in delay, current and total errors [2]: significant reduction in scopolamine impairment in delay, current and total errors
- time compared to scopolamine [2]: significant time reduction compared to scopolamine in both delay time (first exposure) and total time
- delay, current and total errors versus vehicle [2]: did not
- reversal of muscarinic antagonist-induced memory deficit, humans and monkeys ([4]; humans and monkeys): can be reversed

Compound: CN1[C@@H]2C[C@@H](OC(=O)[C@H](CO)c3ccccc3)C[C@H]1[C@@H]1O[C@@H]12 [Scopolamine, scopolamine]
- Mean Errors, Current [2, 12]: 3.63
- Mean Errors, Total [2, 12]: 6.38
- Mean Time, Current [2, 12]: 2.78 min
- Mean Time, Delay [2, 12]: 2.28 min
- Mean Time, Total [2, 12]: 5.27 min
- Mean Errors, Current [2, 13]: 3.57
- Mean Errors, Total [2, 13]: 5.72
- Mean Time, Current [2, 13]: 2.90 min
- Mean Time, Delay [2, 13]: 2.01 min
- Mean Time, Total [2, 13]: 5.14 min
- delay, current and total errors versus vehicle [2]: significant increase in delay, current and total errors versus vehicle
- time measures versus vehicle [2]: increased all time measures compared to vehicle
- total errors compared to vehicle ([2]; second experiment (Table 3)): significantly increased total errors compared to vehicle
- time measures compared to vehicle ([2]; second experiment (Table 3), scopolamine alone): increased all time measures compared to vehicle
- total activity measure ([3]; scopolamine 1.7 mg/kg s.c. alone): significant increase
- memory loss induced ([4]; normal humans and animals (cat, rat, monkey)): Memory loss

Compound: lecithin
- improvement on cognitive tests ([1]; Alzheimer's patients and healthy elderly patients): No significant improvement
